Data published in patent US20110092367A1, “Herbicidal Compositions Comprising 4-amino-3,6-dichloropyridine-2-carboxylic Acid” (BASF SE, priority 2008, published 2011).

Assays:
Format in all cases: in vivo
Matricaria inodora = assay: Field trial Example 1, successive application: damage on MATIN
Text: (§1) Aminiopyralid was used as commercial aquaeous solution having an active ingredient concentration of 240 g/l (Milestone™). Metazachlor was used as a commercial suspension concentrate having an active ingredient concentration of 500 g/l (Butisan S®).
(§2) The performance of aminopyralid applied as an alone treatment at 15, 30 and 50 g a.i./ha applied as an early post emergence treatment and an post emergence treatment in comparison to two different applications including metazachlor at 500 g a.i./ha as an early post emergence application in succession of aminopyralid as a post emergence application at 15 and 30 g a.i./ha was assessed in an oilseed rape field trials.
(§3) The early post emergence treatment was applied by means of fine distributed nozzles at the growth stage (GS) of the crop BBCH 11-12.
(§4) The post emergence treatment was applied by means of fine distributed nozzles at the growth stage (GS) of the crop BBCH 13-14.
(§5) The test period extended over the autumn and spring season (205 days).
(§6) In the following experiments, the herbicidal activity for the individual herbicide compounds (solo application) and of the herbicidal succession was assessed 4 times:
(§7) The evaluation for the damage on undesired weeds caused by the chemical compositions was carried out using a scale from 0 to 100%, compared to the untreated control plants. Here, 0 means no damage and 100 means complete destruction of the plants.

Anthemis arvensis = assay: Field trial Example 1, successive application: damage on ANTAR
Text: as §1, §2, §3, §4, §5, §6, §7

Galium aparine = assay: Field trial Example 1, successive application: damage on GALAP
Text: as §1, §2, §3, §4, §5, §6, §7

Apera spica-venti = assay: Field trial Example 1, successive application: damage on APESV
Text: as §1, §2, §3, §4, §5, §6, §7

Centaurea cyanus = assay: Field trial Example 2, combined application: CENCY; details: Aminopyralid 7.5 g ai/ha solo, 78 DAT
Description: as §1, §7
The value E, which is to be expected if the activity of the individual compounds is just additive, was calculated using the method of S. R. Colby (1967) “Calculating synergistic and antagonistic responses of herbicide combinations”, Weeds 15, p. 22 ff.
The performance of aminopyralid, applied as an alone treatment at […] and 15 g ai/ha, and the performance of metazachlor, applied as an alone treatment at 375 and 500 g ai/ha, as well as the mixtures of the both compounds have been assessed in winter oilseed rape field trials. The trials have been conducted in Germany at two locations.
Post emergence treatment was applied by means of fine distributed nozzels at the growth stage (GS/BBCH 11/12).

Lamium purpureum = assay: Greenhouse trial, post-emergence: LAMPU; details: for % activity 28 DAT: LAMPU
Description: (§8) The test plants have been seeded, separately for each species, in plastic containers in sandy loamy soil containing 5% organic matter.
(§9) For the post emergence treatment, the plants were first grown to the 2 leaf station (GS 12). Here, the herbicidal compositions were suspended or emulsified in water as distribution medium and sprayed using finely distributing nozzels.
(§10) The plants have been cultivated due to there individual requirements at 10-25° C. and 20-35° C. The plants were irrigated due to there necessity. […]
as §7
(§11) Calculation of expected activity of binary mixtures was done by using the Colby-Formula according to Example 1.

Centauria cyanus = assay: Greenhouse trial, post-emergence: CENCY; details: for % activity 28 DAT: CENCY, post-emergence (Tables 7-9)
Description: as §8, §9, §10, §7, §11

[1] = 15 g ai/ha, treatment A early post emergence, DAT 25/DALT 10
[2] = 15 g ai/ha, treatment A early post emergence, DAT 65/DALT 50
[3] = 15 g ai/ha, treatment A early post emergence, DAT 176/DALT 161
[4] = 15 g ai/ha, treatment B post emergence, DAT 25/DALT 10
[5] = 15 g ai/ha, treatment B post emergence, DAT 65/DALT 50
[6] = 15 g ai/ha, treatment B post emergence, DAT 176/DALT 161
[7] = 30 g ai/ha, treatment A early post emergence, DAT 25/DALT 10
[8] = 30 g ai/ha, treatment A early post emergence, DAT 65/DALT 50
[9] = 30 g ai/ha, treatment A early post emergence, DAT 176/DALT 161
[10] = 30 g ai/ha, treatment B post emergence, DAT 25/DALT 10
[11] = 30 g ai/ha, treatment B post emergence, DAT 65/DALT 50
[12] = 30 g ai/ha, treatment B post emergence, DAT 176/DALT 161
[13] = 50 g ai/ha, treatment A early post emergence, DAT 25/DALT 10
[14] = 50 g ai/ha, treatment A early post emergence, DAT 65/DALT 50
[15] = 50 g ai/ha, treatment A early post emergence, DAT 176/DALT 161
[16] = 50 g ai/ha, treatment B post emergence, DAT 25/DALT 10
[17] = 50 g ai/ha, treatment B post emergence, DAT 65/DALT 50
[18] = 50 g ai/ha, treatment B post emergence, DAT 176/DALT 161
[19] = aminopyralid 15 g ai/ha, treatment A, DAT 205/DALT 190
[20] = aminopyralid 15 g ai/ha, treatment B, DAT 205/DALT 190
[21] = aminopyralid 30 g ai/ha, treatment A, DAT 205/DALT 190
[22] = aminopyralid 30 g ai/ha, treatment B, DAT 205/DALT 190
[23] = aminopyralid 50 g ai/ha, treatment A, DAT 205/DALT 190
[24] = aminopyralid 50 g ai/ha, treatment B, DAT 205/DALT 190
[25] = Lamium purpureum, post-emergence, 672 h, read-out: % activity 28 DAT, LAMPU
[26] = post-emergence, 672 h, read-out: % activity 28 DAT, CENCY

Nc1cc(Cl)nc(C(=O)O)c1Cl [aminopyralid, 4-amino-3,6-dichloropyridine-2-carboxylic acid]
damage on MATIN (Matricaria inodora; [1]): 97%
damage on MATIN (Matricaria inodora; [2]): 96%
damage on MATIN (Matricaria inodora; [3]): 100%
damage on MATIN (Matricaria inodora; [4]): 88%
damage on MATIN (Matricaria inodora; [5]): 88%
damage on MATIN (Matricaria inodora; [6]): 98%
damage on MATIN (Matricaria inodora; [7]): 100%
damage on MATIN (Matricaria inodora; [8]): 98%
damage on MATIN (Matricaria inodora; [9]): 100%
damage on MATIN (Matricaria inodora; [10]): 82%
damage on MATIN (Matricaria inodora; [11]): 91%
damage on MATIN (Matricaria inodora; [12]): 100%
damage on MATIN (Matricaria inodora; [13]): 100%
damage on MATIN (Matricaria inodora; [14]): 100%
damage on MATIN (Matricaria inodora; [15]): 100%
damage on MATIN (Matricaria inodora; [16]): 88%
damage on MATIN (Matricaria inodora; [17]): 94%
damage on MATIN (Matricaria inodora; [18]): 98%
damage on MATIN (Matricaria inodora; [19]): 100%
damage on MATIN (Matricaria inodora; [20]): 100%
damage on MATIN (Matricaria inodora; [21]): 100%
damage on MATIN (Matricaria inodora; [22]): 100%
damage on MATIN (Matricaria inodora; [23]): 100%
damage on MATIN (Matricaria inodora; [24]): 100%
damage on ANTAR (Anthemis arvensis; [1]): 97%
damage on ANTAR (Anthemis arvensis; [2]): 96%
damage on ANTAR (Anthemis arvensis; [3]): 100%
damage on ANTAR (Anthemis arvensis; [4]): 87%
damage on ANTAR (Anthemis arvensis; [5]): 87%
damage on ANTAR (Anthemis arvensis; [6]): 98%
damage on ANTAR (Anthemis arvensis; [7]): 100%
damage on ANTAR (Anthemis arvensis; [8]): 98%
damage on ANTAR (Anthemis arvensis; [9]): 100%
damage on ANTAR (Anthemis arvensis; [10]): 82%
damage on ANTAR (Anthemis arvensis; [11]): 91%
damage on ANTAR (Anthemis arvensis; [12]): 100%
damage on ANTAR (Anthemis arvensis; [13]): 100%
damage on ANTAR (Anthemis arvensis; [14]): 100%
damage on ANTAR (Anthemis arvensis; [15]): 100%
damage on ANTAR (Anthemis arvensis; [16]): 93%
damage on ANTAR (Anthemis arvensis; [17]): 94%
damage on ANTAR (Anthemis arvensis; [18]): 98%
damage on ANTAR (Anthemis arvensis; [19]): 100%
damage on ANTAR (Anthemis arvensis; [20]): 100%
damage on ANTAR (Anthemis arvensis; [21]): 100%
damage on ANTAR (Anthemis arvensis; [22]): 100%
damage on ANTAR (Anthemis arvensis; [23]): 100%
damage on ANTAR (Anthemis arvensis; [24]): 100%
damage on GALAP (Galium aparine; [1]): 67%
damage on GALAP (Galium aparine; [2]): 77%
damage on GALAP (Galium aparine; [3]): 86%
damage on GALAP (Galium aparine; [4]): 72%
damage on GALAP (Galium aparine; [5]): 78%
damage on GALAP (Galium aparine; [6]): 82%
damage on GALAP (Galium aparine; [7]): 92%
damage on GALAP (Galium aparine; [8]): 96%
damage on GALAP (Galium aparine; [9]): 96%
damage on GALAP (Galium aparine; [10]): 72%
damage on GALAP (Galium aparine; [11]): 78%
damage on GALAP (Galium aparine; [12]): 86%
damage on GALAP (Galium aparine; [13]): 99%
damage on GALAP (Galium aparine; [14]): 99%
damage on GALAP (Galium aparine; [15]): 100%
damage on GALAP (Galium aparine; [16]): 87%
damage on GALAP (Galium aparine; [17]): 87%
damage on GALAP (Galium aparine; [18]): 89%
damage on GALAP (Galium aparine; [19]): 88%
damage on GALAP (Galium aparine; [20]): 87%
damage on GALAP (Galium aparine; [21]): 93%
damage on GALAP (Galium aparine; [22]): 91%
damage on GALAP (Galium aparine; [23]): 100%
damage on GALAP (Galium aparine; [24]): 93%
damage on APESV (Apera spica-venti; [2]): 28%
damage on APESV (Apera spica-venti; [3]): 28%
damage on APESV (Apera spica-venti; [5]): 32%
damage on APESV (Apera spica-venti; [6]): 32%
damage on APESV (Apera spica-venti; [8]): 47%
damage on APESV (Apera spica-venti; [9]): 47%
damage on APESV (Apera spica-venti; [11]): 38%
damage on APESV (Apera spica-venti; [12]): 38%
damage on APESV (Apera spica-venti; [14]): 85%
damage on APESV (Apera spica-venti; [15]): 85%
damage on APESV (Apera spica-venti; [17]): 55%
damage on APESV (Apera spica-venti; [18]): 55%
damage on APESV (Apera spica-venti; [19]): 28%
damage on APESV (Apera spica-venti; [20]): 45%
damage on APESV (Apera spica-venti; [21]): 47%
damage on APESV (Apera spica-venti; [22]): 38%
damage on APESV (Apera spica-venti; [23]): 85%
damage on APESV (Apera spica-venti; [24]): 55%
% activity (Centaurea cyanus): 98%
% activity 28 DAT (Lamium purpureum; aminopyralid 5 g ai/ha solo, post-emergence (Table 10)): 20%
% activity 28 DAT (Lamium purpureum; aminopyralid 5 g ai/ha solo, post-emergence (Tables 7-9)): 30%
% activity 28 DAT (Lamium purpureum; aminopyralid 10 g ai/ha solo, post-emergence (Table 10)): 30%
% activity 28 DAT (Lamium purpureum; aminopyralid 10 g ai/ha solo, post-emergence (Tables 7-9)): 65%
inhibition at 5 g/ha (Lamium purpureum; [25]): 20%
inhibition at 10 g/ha (Lamium purpureum; [25]): 30%
% activity 28 DAT (Centauria cyanus; aminopyralid 5 g ai/ha solo): 60%
% activity 28 DAT (Centauria cyanus; aminopyralid 10 g ai/ha solo): 65%
inhibition at 5 g/ha (Centauria cyanus; [26]): 70%
inhibition at 10 g/ha (Centauria cyanus; [26]): 85%
